Measured values from US9408859B2, “Pharmaceutical compositions useful for preventing and treating cancer” (Mitotech SA, priority 2007, dated 2016).

Experiments:
HCT116 p53+/+ = assay: Growth of human large intestine carcinoma xenografts, wild type p53; type: in vivo, mouse; conditions: SkQ1 in drinking water, 0.5-50 nM/kg/day, 4 weeks
From the text: (§1) Two human large intestine carcinoma cell sub-lines that differ by p53 status—wild type cells (HCT116 p53+/+)) and cells with inactivated p53 (HCT116 p53−/−)) cell line cultivation see in Bunz et al. (1998) Science, 282:1497-1500; see model description in Sablina et al. (2003), J. Biol. Chem., 278:27362-27371. One million cells were hypodermically implanted into thymus-deprived mice. Mice in each group were divided into 4 sub-groups of 10 mice: one group received water to drink; one group received water with SkQ1 (0.01 nmol) per mouse per day (0.5 nM/kg/day); one group received water with SkQ1 (0.1 nmol) per mouse per day (5 nM/kg/day); one group received water with SkQ1 (1 nmol) per mouse per day (50 nM/kg/day).
(§2) The size of the tumors was evaluated every 3 days. After 4 weeks mice were sacrificed and the tumors removed and fixed for histological assay.

[1] = system: human rhabdomyosarcoma cell line (RD); assay: RD cell morphology, attachment and multinuclear cells; type: cell-based
Protocol: In the following experiment, a human rhabdomyosarcoma cell line (RD) purchased from the ATCC (#CCL-136) was used. These cells were isolated from a […] 7 years ago and are widely accepted as a model for studies of rhabdomyosarcoma in vitro and in vivo.
The cells were grown in Dulbecco's modified Eagle's medium (DMEM, Gibco®, Invitrogen, Carlsbad, Calif.) supplemented with 10% FBS. The cells were treated with 20 nM SkQ (SkQ1, SkQR1, SkQB1, or SkQBP1), or with a non-targeted antioxidant (1 mM NAC, or 100 μM Trolox) 24 to 72 hours before evaluation. In some experiments 1 μM of the protonophorous uncoupler FCCP was added 1 hour before the addition of SkQ1 to depolarize the mitochondrial membrane, and thus to prevent the electrophoretic accumulation of SkQ in the mitochondrial interior. The cells were then stained with rabbit polyclonal antibodies against actin (1:1000) (Sigma-Aldrich Corp., Baleras, Russia) and monoclonal antibody DM1A against tubulin (1:1000) (Sigma-Aldrich Corp.), and their morphology examined using an Axiovert fluorescent microscope equipped with objectives 20× (dry) and 100× (oil immersion Neofluar) (Carl Zeiss, Germany).

[2] = system: human rhabdomyosarcoma cell line (RD); assay: Apoptosis in RD cells (Hoechst staining, propidium iodide flow cytometry); type: cell-based; conditions: 20 nM SkQ1 for 24 hours; flow cytometry
Protocol: To determine the viability of the cells, chromatine condensation and fragmentation was analyzed in similarly-treated cells (20 nM SkQ or 1 mM NAC or 100 mM Trolox for 24 hours and 1 μm FCCP one hour before SkQ1 where indicated) after staining with Hoechst 3342 (GenScript, Cat. No. L00309, performed according to manufacture manual http://www.genscript.com/tech_guide/TM0361.pdf). The cells were then examined using an Axiovert fluorescent microscope equipped with objectives 20× (dry) and 100× (oil immersion Neofluar) (Carl Zeiss).
Further evidence of apoptosis was obtained by analysis of DNA content in the cellular population using flow cytometry. Cells were incubated with 0.05% ethanol was added (control) or with 20 nM SkQ1 for 24 hours, and then fixed and stained with propidium iodide (5 μM). They were then analyzed by flow cytometry using a FC-500 FACS (Beckman Coulter, Inc., Brea, Calif.).

Lung Lewis's carcinoma = assay: SkQ1 combined with doxorubicin on growth of lung Lewis's carcinoma; type: in vivo, mouse; conditions: regime per group
Protocol: For development of oncological diseases joint therapy that combines SkQ1 and chemotherapy, a study on SkQ1 influence on single doxorubicin injection efficiency was performed (one of the mechanisms of the preparation is activation of oxidative processes in normal and cancerous cells). SkQ1 was introduced before, simultaneously, or after introduction of doxorubicin in maximum dose of 500 nM/kg (in order to block oxidative mechanism of doxorubicin influence).
Doxorubicin was applied before, after, and during the course of SkQ1.

HCT116 p53−/− = assay: Growth of human large intestine carcinoma xenografts, inactivated p53; type: in vivo, mouse
From the text: as §1, §2

[3] = system: Mouse Ras-transformed fibroblast cells; assay: Effect on morphology and adherence of Ras-transformed cells; type: cell-based
Protocol: The experiment was carried out using cells, transformed with genetic construct, expressing oncogene RAS, and thus modeling conditions of cells underwent cancerous transformation. (see, model description in Levina, et al. (1996), Exp. Cell. Res., November 25; 229(1):159-165).
Mouse Ras-transformed fibroblast cells had strongly expressed changed morphology (FIG. 1), one close to morphology of metastasizing cancerous cells (decrease in surface square, cell elongation). […] Cells were poorly adherent and spread-eagled what led to monolayer structure disorder.
However incubation with SkQ1 led to significant changes in cells morphology (FIG. 1). […] Morphological changes correlated with actinic fibrils increase in content, focal contact reinforcement and cell better adherence to the surface.

Compound: CC1=C(C)C(=O)C(CCCCCCCCCC[P+](c2ccccc2)(c2ccccc2)c2ccccc2)=CC1=O [SkQ1]
- Tumor growth vs control group receiving pure water (HCT116 p53+/+): suppression of tumor growth
- Cell morphology ([1]; 20 nM, pretreatment for 24 hours): induced the formation of elongated cells
- Multinuclear cells in surviving cell fraction ([1]; 8th day of cultivation with SkQ1): enriched in multinuclear cells
- cells remained attached to the surface ([1]; 8th day of cultivation with nM SkQ1): about 4%
- sub-G1 peak (DNA content, propidium iodide) [2]: accumulation of apoptotic bodies
- TGS %, by tumor volume (Lung Lewis's carcinoma; Day 7, SkQ 500 nmol 0.2 ml/mouse per os x5, DOX 7 mg/kg ip): 33%
- TGS %, by tumor volume (Lung Lewis's carcinoma; Day 7, SkQ 500 nmol 0.2 ml/mouse per os x5, DOX 7 mg/kg ip, listed as SkQ): 33^ %
- TGS %, by tumor volume (Lung Lewis's carcinoma; Day 10): 42%
- TGS %, by tumor volume (Lung Lewis's carcinoma; Day 14): 48%
- TGS %, by tumor volume (Lung Lewis's carcinoma; Day 17): 28%
- TGS %, by tumor volume (Lung Lewis's carcinoma; Day 21): 30%
- Effect on tumors with inactivated p53 compared to WT p53 (HCT116 p53−/−; SkQ1 in drinking water): stronger effect on the tumor with inactivated p53
- Tumor growth vs control group receiving pure water (HCT116 p53−/−; SkQ1 in drinking water, 0.5-50 nM/kg/day, 4 weeks, inactivated p53): suppression of tumor growth
- dose of maximal effect (HCT116 p53−/−; added to drinking water): 5 nM
- efficient concentration (HCT116 p53−/−; in drinking water, equals 5 nM/kg/day, stated for the HCT116 study): 0.1 nmol per mouse per day
- Mean cell surface square value ([3]; Ras-transformed fibroblasts incubated with SkQ1): increased manifold
- Monolayer formation ([3]; Ras-transformed fibroblasts treated with SkQ1): formed monolayers similar to those of normal fibroblasts
